# According to US7687511B2, “Substituted dihydropyrimidines, dihydropyrimidones and dihydropyrimidinethiones as calcium channel blockers” (priority 2002, dated 2010):
row,SMILES,melting point
1,"CCCCCCCCCCCCCCCc1cccc(OC)c1C1NC(=O)NC(C)=C1C(=O)OCC (stereo not drawn) [PPK-22, 5-ethoxycarbonyl-4-(2-methoxy-6-pentadecylphenyl)-6-methyl-3,4-dihydropyrimidin-2(1H)-one]",91 to 93 °C
2,"CCCCCCCCCCCCCCCc1cccc(OCC)c1C1NC(=O)NC(C)=C1C(=O)OC (stereo not drawn) [PPK-23, 5-methoxycarbonyl-4-(2-ethoxy-6-pentadecylphenyl)-6-methyl-3,4-dihydropyrimidin-2(1H)-one]",127 to 129 °C
3,"CCCCCCCCCCCCCCCc1cccc(OC)c1C1NC(=O)NC(C)=C1C(=O)OC (stereo not drawn) [PPK-24, 5-methoxycarbonyl-4-(2-methoxy-6-pentadecylphenyl)-6-methyl-3,4-dihydropyrimidin-2(1H)-one]",101 to 102 °C
4,"CCCCCCCCCCCCCCCc1cccc(OCC)c1C1NC(=O)NC(C)=C1C(=O)OCC (stereo not drawn) [PPK-25, 5-ethoxycarbonyl-4-(2-ethoxy-6-pentadecylphenyl)-6-methyl-3,4-dihydropyrimidin-2(1H)-one]",99 to 100 °C
5,"CCCCCCCCCCCCCCCc1cccc(OC)c1C1C(C(=O)OC)=C(C)NC(=O)N1C(=O)OCC (stereo not drawn) [PPK-30, 3,6-dihydro-4-methyl-6-[2-methoxy-6-pentadecylphenyl]-2-oxo-1,5-(2H)-pyrimidinedicarboxylic acid 1-ethyl 5-methyl diester]",121 to 122 °C
6,"CCCCCCCCCCCCCCCc1cccc(OC)c1C1C(C(=O)OCC)=C(C)NC(=O)N1C(=O)OCC (stereo not drawn) [PPK-31, 3,6-dihydro-4-methyl-6-[2-methoxy-6-pentadecylphenyl]-2-oxo-1,5-(2H)-pyrimidinedicarboxylic acid bis(ethyl ester)]",109 to 110 °C
7,"CCCCCCCCCCCCCCCc1cccc(OC)c1C1C(C(=O)OC(C)C)=C(C)NC(=O)N1C(=O)OCC (stereo not drawn) [PPK-32, 3,6-dihydro-4-methyl-6-[2-methoxy-6-pentadecylphenyl]-2-oxo-1,5-(2H)-pyrimidinedicarboxylic acid 1-ethyl 5-isopropyl diester]",100 °C
8,"CCCCCCCCCCCCCCCc1cccc(OCC)c1C1C(C(=O)OC)=C(C)NC(=O)N1C(=O)OCC (stereo not drawn) [PPK-33, 3,6-dihydro-4-methyl-6-[2-ethoxy-6-pentadecylphenyl]-2-oxo-1,5-(2H)-pyrimidinedicarboxylic acid 1-ethyl 5-methyl diester]",103 °C
9,"CCCCCCCCCCCCCCCc1cccc(OCC)c1C1C(C(=O)OCC)=C(C)NC(=O)N1C(=O)OCC (stereo not drawn) [PPK-34, 3,6-dihydro-4-methyl-6-[2-ethoxy-6-pentadecylphenyl]-2-oxo-1,5-(2H)-pyrimidinedicarboxylic acid 1,5-diethyl diester]",112 °C
10,"CCCCCCCCCCCCCCCc1cccc(OC(C)C)c1C1C(C(=O)OC)=C(C)NC(=O)N1C(=O)OCC (stereo not drawn) [PPK-36, 3,6-dihydro-4-methyl-6-[2-isopropoxy-6-pentadecylphenyl]-2-oxo-1,5-(2H)-pyrimidinedicarboxylic acid 1-ethyl 5-methyl diester]",120 to 121 °C
11,"CCCCCCCCCCCCCCCc1cccc(OC(C)C)c1C1C(C(=O)OCC)=C(C)NC(=O)N1C(=O)OCC (stereo not drawn) [PPK-37, 3,6-dihydro-4-methyl-6-[2-isopropoxy-6-pentadecylphenyl]-2-oxo-1,5-(2H)-pyrimidinedicarboxylic acid 1,5-diethyl diester]",90 to 92 °C
12,"CCCCCCCCCCCCCCCc1cccc(OC(C)C)c1C1C(C(=O)OC(C)C)=C(C)NC(=O)N1C(=O)OCC (stereo not drawn) [PPK-38, 3,6-dihydro-4-methyl-6-[2-isopropoxy-6-pentadecylphenyl]-2-oxo-1,5-(2H)-pyrimidinedicarboxylic acid 1-ethyl 5-isopropyl diester]",88 to 90 °C
